Where two headings read alike, the source gives them in different places.
Assays:
[1] = First-in-human trial: pharmacokinetics in plasma and urine; type: in vivo; conditions: for AUC(0-t): read-out: AUC24hr
Method: Blood and urine samples were collected at prespecified time points for 24 h after initial dose and at days 2–3 (S2) and after multiple doses on days 3–4 (S1) and 22–23 (S3) across dose levels. Predose samples were collected on days 8, 15 and 22. Urine samples were collected during cycle 1.
Descriptive statistics were used to summarise the safety data, including all patients who received at least one dose of OSI-027. All patients who completed the pharmacokinetic sampling were included in the PK analyses, which used descriptive statistics to summarise AUC0–∞, AUC0–t, Cmax, Clast, Tmax, Tlast, %AUC extrapolated, T1/2, clearance (Cl/F) and volume of distribution (Vz/F). Exploratory analysis were planned to correlate pharmacodynamics and pharmacokinetics. Response to treatment was evaluated according to Response Evaluation Criteria in Solid Tumors (RECIST) ([Therasse et al, 2000]).

tumour cell lines = tested on: tumour cell lines; set-up: method as in Bhagwat et al, 2011; Falcon et al, 2011; conditions: including models resistant to rapalogues, ref Bhagwat et al, 2011, Falcon et al, read-out: IC50 values in a broad panel of tumour cell lines; cited from earlier work
[2] = human, plasma, oral, 35 mg, Schedule 3, 35 mg, Day 22, N=4, median (range)
[3] = human, plasma, oral, 40 mg, Schedule 2, 40 mg, N=3, median (range)
[4] = human, plasma, oral, 40 mg, Schedule 3, 40mg, Day 1, N=6, median (range)
[5] = human, plasma, oral, 40 mg, Schedule 3, 40mg, Day 22, N=4, median (range)
[6] = human, plasma, oral, 45 mg, Schedule 1, 45 mg, Day 1, N=3, median (range)
[7] = human, plasma, oral, 45 mg, Schedule 1, 45 mg, Day 3, N=3, median (range)
[8] = human, plasma, oral, 50 mg, Schedule 3, 50 mg, Day 1, N=3, median (range)
[9] = human, plasma, oral, 50 mg, Schedule 3, 50 mg, Day 22, N=1
[10] = human, plasma, oral, 65 mg, Schedule 1, 65 mg, Day 1, N=3, median (range)
[11] = human, plasma, oral, 65 mg, Schedule 1, 65 mg, Day 3, N=3, median (range)
[12] = human, plasma, oral, 80 mg, Schedule 2, 80 mg, N=4, median (range)
[13] = human, plasma, oral, 90 mg, Schedule 1, 90 mg, Day 1, N=14, median (range)
[14] = human, plasma, oral, 90 mg, Schedule 1, 90 mg, Day 3, N=14, median (range)
[15] = human, plasma, oral, 120 mg, Schedule 1, 120 mg, Day 1, N=14, median (range)
[16] = human, plasma, oral, 120 mg, Schedule 1, 120 mg, Day 3, N=13, median (range)
[17] = human, plasma, oral, 160 mg, Schedule 1, 160 mg, Day 1, N=5, median (range)
[18] = human, plasma, oral, 160 mg, Schedule 1, 160 mg, Day 3, N=5, median (range)
[19] = human, plasma, oral, 160 mg, Schedule 2, 160 mg, N=3, median (range)
[20] = human, plasma, oral, 240 mg, Schedule 2, 240mg, N=15, median (range)

In the case of COc1cccc2cc(-c3nc([C@H]4CC[C@H](C(=O)O)CC4)n4ncnc(N)c34)[nH]c12 [OSI-027], the half-life ([1]; human, plasma, oral, 35 mg, Schedule 3, 35 mg, Day 1, N=4, median (range), read-out: T1/2 (converted)) is reported as 7.24 h, the Cmax [1, 2] is reported as 2300 ng/mL and the AUC(0-t) [1, 2] is reported as 31200 ng·h/mL. For the same compound, the half-life ([1]; human, plasma, oral, 35 mg, Schedule 3, 35 mg, Day 22, N=4, median (range), read-out: T1/2 (converted)) was 11.1 h, the AUC(0-inf) [1, 3] was 28600 ng·h/mL and the Cmax [1, 3] was 2510 ng/mL. It also gave a half-life ([1]; human, plasma, oral, 40 mg, Schedule 2, 40 mg, N=3, median (range), read-out: T1/2 (converted)) of 12.4 h, an AUC(0-inf) [1, 4] of 77100 ng·h/mL and a Cmax [1, 4] of 3140 ng/mL. It also gave a half-life ([1]; human, plasma, oral, 40 mg, Schedule 3, 40mg, Day 1, N=6, median (range), read-out: T1/2 (converted)) of 17.8 h, a Cmax [1, 5] of 3000 ng/mL and an AUC(0-t) [1, 5] of 50100 ng·h/mL. For the same compound, the half-life ([1]; human, plasma, oral, 40 mg, Schedule 3, 40mg, Day 22, N=4, median (range), read-out: T1/2 (converted)) was 15.9 h, the AUC(0-inf) [1, 6] was 31100 ng·h/mL and the Cmax [1, 6] was 2770 ng/mL. For the same compound, the half-life ([1]; human, plasma, oral, 45 mg, Schedule 1, 45 mg, Day 1, N=3, median (range), read-out: T1/2 (converted)) was 7.65 h, the Cmax [1, 7] was 3850 ng/mL and the AUC(0-t) [1, 7] was 35200 ng·h/mL. The half-life ([1]; human, plasma, oral, 45 mg, Schedule 1, 45 mg, Day 3, N=3, median (range), read-out: T1/2 (converted)) was 9.14 h, the AUC(0-inf) [1, 8] was 46200 ng·h/mL and the Cmax [1, 8] was 3040 ng/mL. It also gave a half-life ([1]; human, plasma, oral, 50 mg, Schedule 3, 50 mg, Day 1, N=3, median (range), read-out: T1/2 (converted)) of 10.3 h, a Cmax [1, 9] of 1110 ng/mL and an AUC(0-t) [1, 9] of 17200 ng·h/mL. The AUC(0-inf) [1, 10] was 50000 ng·h/mL, the Cmax [1, 10] was 4750 ng/mL and the half-life ([1]; human, plasma, oral, 65 mg, Schedule 1, 65 mg, Day 1, N=3, median (range), read-out: T1/2 (converted)) was 7.01 h. For the same compound, the Cmax [1, 11] was 5550 ng/mL, the AUC(0-t) [1, 11] was 64400 ng·h/mL and the half-life ([1]; human, plasma, oral, 65 mg, Schedule 1, 65 mg, Day 3, N=3, median (range), read-out: T1/2 (converted)) was 8.46 h. The AUC(0-inf) [1, 12] was 52600 ng·h/mL, the Cmax [1, 12] was 3890 ng/mL and the half-life ([1]; human, plasma, oral, 80 mg, Schedule 2, 80 mg, N=4, median (range), read-out: T1/2 (converted)) was 9.22 h. It also gave an AUC(0-inf) [1, 13] of 90300 ng·h/mL, a Cmax [1, 13] of 5440 ng/mL and a half-life ([1]; human, plasma, oral, 90 mg, Schedule 1, 90 mg, Day 1, N=14, median (range), read-out: T1/2 (converted)) of 12.1 h. It also gave a Cmax [1, 14] of 7010 ng/mL, an AUC(0-t) [1, 14] of 69600 ng·h/mL and a half-life ([1]; human, plasma, oral, 90 mg, Schedule 1, 90 mg, Day 3, N=14, median (range), read-out: T1/2 (converted)) of 12 h. For the same compound, the AUC(0-inf) [1, 15] was 87600 ng·h/mL, the Cmax [1, 15] was 5590 ng/mL and the half-life ([1]; human, plasma, oral, 120 mg, Schedule 1, 120 mg, Day 1, N=14, median (range), read-out: T1/2 (converted)) was 10.2 h. The Cmax [1, 16] was 5450 ng/mL, the AUC(0-t) [1, 16] was 54500 ng·h/mL and the half-life ([1]; human, plasma, oral, 120 mg, Schedule 1, 120 mg, Day 3, N=13, median (range), read-out: T1/2 (converted)) was 12.8 h. It also gave an AUC(0-inf) [1, 17] of 131000 ng·h/mL, a Cmax [1, 17] of 9330 ng/mL and a half-life ([1]; human, plasma, oral, 160 mg, Schedule 1, 160 mg, Day 1, N=5, median (range), read-out: T1/2 (converted)) of 10.3 h. The Cmax [1, 18] was 11000 ng/mL, the AUC(0-t) [1, 18] was 106000 ng·h/mL and the half-life ([1]; human, plasma, oral, 160 mg, Schedule 1, 160 mg, Day 3, N=5, median (range), read-out: T1/2 (converted)) was 11.9 h. For the same compound, the AUC(0-inf) [1, 19] was 267000 ng·h/mL, the Cmax [1, 19] was 7620 ng/mL and the half-life ([1]; human, plasma, oral, 160 mg, Schedule 2, 160 mg, N=3, median (range), read-out: T1/2 (converted)) was 24.7 h. For the same compound, the AUC(0-inf) [1, 20] was 125000 ng·h/mL, the Cmax [1, 20] was 8780 ng/mL and the half-life ([1]; human, plasma, oral, 240 mg, Schedule 2, 240mg, N=15, median (range), read-out: T1/2 (converted)) was 13.8 h. The half-life ([1]; human, plasma, oral, patients, estimate, based on the weekly dose schedule, read-out: half-life (converted)) was ~14 h, the half-life ([1]; human, plasma, oral, patients, range over groups, read-out: half-life, range) was 8 to 25 h and the Tmax ([1]; human, plasma, oral, patients, across dose levels) was ≤ 4 h. The exposure versus dose ([1]; patients) was “dose proportional”, the “urinary excretion of unchanged OSI-027, range” value ([1]; patients) was 1–7% and the half-life ([1]; patients, estimate, based on the weekly dose schedule) was 14 h. For the same compound, the IC50 (tumour cell lines) was < 10 µM.

Source: publication PMC4984800, “A first in man, dose-finding study of the mTORC1/mTORC2 inhibitor OSI-027 in patients with advanced solid malignancies” (British Journal of Cancer, 2016)
